Assay results: patent publication US12018023B2 (NERVIANO MEDICAL SCIENCES S.R.L., priority 2018, dated 2024)

Key:
[1] = tested on: HT-1080 (IDH1^R132C); assay: Cellular 2-HG production assay, HT-1080; type: cell-based; details: Homo sapiens, HT-1080, 72 h, inhibition of 2HG production, 72 hr incubation, LC-MS/MS; read-out: HT1080 2-HG IC50
Method in brief: (§1)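 Cells in E-MEM/10% FCS (G418 500 μg/mL for the transfected U87-MG line) at 500 per well got compound 24 h after seeding and were incubated 72 h at 37 °C. Medium 2-HG was measured by LC-MS/MS with 2-HG-d3 internal standard; IC50 came from sigmoidal fitting versus controls.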

[2] = biological target: T1, IDH1^R132H homodimer enzyme (Homo sapiens, UniProt O75874, R132H); assay: NADPH depletion assay, IDH1 R132H; type: biochemical
T1 construct: purchased not specified
T1 sequence (O75874 whole entry R132H): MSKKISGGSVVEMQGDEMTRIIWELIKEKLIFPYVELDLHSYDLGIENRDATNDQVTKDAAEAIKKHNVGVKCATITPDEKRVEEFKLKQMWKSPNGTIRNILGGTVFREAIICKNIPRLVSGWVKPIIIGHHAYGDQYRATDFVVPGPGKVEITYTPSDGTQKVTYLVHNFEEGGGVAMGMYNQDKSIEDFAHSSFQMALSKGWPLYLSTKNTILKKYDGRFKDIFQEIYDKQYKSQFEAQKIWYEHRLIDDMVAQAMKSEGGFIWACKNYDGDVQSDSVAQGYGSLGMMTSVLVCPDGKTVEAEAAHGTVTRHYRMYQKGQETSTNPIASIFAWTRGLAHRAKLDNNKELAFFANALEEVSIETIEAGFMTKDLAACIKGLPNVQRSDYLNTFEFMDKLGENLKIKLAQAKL
Method in brief: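 IDH1 R132H enzyme (8 nM as diluted) in Tris-HCl pH 7.6 with 10 mM MgCl2, 0.001% Triton X-100 and 4 mM β-mercaptoethanol is preincubated 15 min at RT with compound. Substrate mix (12 uM NADPH, 3.4 mM α-ketoglutarate) is added for 60 min; remaining NAD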

[3] = biological target: T2, IDH1^R132C (Homo sapiens, UniProt O75874, R132C); assay: NADPH depletion assay, IDH1 R132C; type: biochemical
T2 construct: purchased not specified
T2 sequence (O75874 whole entry R132C): as the sequence (O75874 whole entry R132H) above, with H132C counted along it
Method in brief: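 Fluorescence readout (Ex544/Em590) of NADPH left after diaphorase/resazurin addition. Alpha-ketoglutarate 0.14 mM final, enzyme 2 nM final; compound preincubation 15 min, then 60 min reaction, both at room temperature, pH 7.6 Tris buffer.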

[4] = biological target: T3, IDH2^R172K (Homo sapiens, UniProt P48735, R172K); assay: NADPH depletion assay, IDH2 R172K; type: biochemical
T3 construct: purchased not specified
T3 sequence (P48735 40-452 R172K): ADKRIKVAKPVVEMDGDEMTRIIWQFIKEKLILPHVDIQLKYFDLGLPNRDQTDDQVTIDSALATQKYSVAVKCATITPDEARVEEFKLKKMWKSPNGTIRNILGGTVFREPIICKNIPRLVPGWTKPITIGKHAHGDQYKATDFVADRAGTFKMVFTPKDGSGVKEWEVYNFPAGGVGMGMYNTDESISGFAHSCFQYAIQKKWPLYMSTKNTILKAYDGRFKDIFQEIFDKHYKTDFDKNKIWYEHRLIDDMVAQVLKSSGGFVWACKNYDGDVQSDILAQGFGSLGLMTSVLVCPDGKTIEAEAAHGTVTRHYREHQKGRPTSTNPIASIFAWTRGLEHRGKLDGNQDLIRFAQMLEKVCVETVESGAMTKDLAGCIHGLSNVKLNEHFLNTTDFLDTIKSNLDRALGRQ
Method in brief: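 This NADPH depletion assay measures NADPH left after conversion of alpha-ketoglutarate (0.55 mM final) by 16 nM IDH2 R172K over 60 min at room temperature, after a 15 min compound preincubation in pH 7.6 Tris buffer. Substrate mix held 12 μM NADPH. Diaphorase/resazurin gave the fluorescence read-out at 544/590 nm.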

[5] = biological target: T4, IDH1WT enzyme (Homo sapiens, UniProt O75874); assay: Enzymatic assay for IDH1 wild-type (NADPH forming assay); type: biochemical
T4 construct: purchased not specified
T4 sequence (O75874 whole entry): as the sequence (O75874 whole entry R132H) above, with H132R counted along it
Experimental: IDH1WT enzymatic activity converting isocitric acid to alpha-ketoglutarate is measured using a NADPH forming assay. In the assay the forming cofactor is measured in continuous with the addition of a catalytic excess of diaphorase and resazurin, to generate a fluorescent signal in proportion to the amount of NADPH forming.
Compounds were preincubated with the enzyme, then the reaction was started by the addition of NADP^+, isocitrate, diaphorase and a corresponding substrate, resazurin. Diaphorase reduces resazurin to the highly fluorescent resorufin with the concomitant oxidation of NADPH to NADP. Specifically, 0.2 uL of test compound, previously serially diluted 1 to 3, 10 experimental points from 1 mM in DMSO, was added to 0.016 nM IDH1WT enzyme in 10 μL of Assay Buffer (150 mM NaCl, 50 mM Tris-HCl pH 7.6, 10 mM MgCl2, 0.001% Triton X-100, 4 mM β-mercaptoethanol); the mixture is incubated for 15 minutes at room temperature. The reaction is started with the addition of 10 μL of Substrate Mix (400 μM NADP^+, 40 μM iso-citrate, 5 ugr/mL Diaphorase and 7 μM resazurin in Assay Buffer), the mixture is incubated at room temperature and the reaction is reading on a ViewLux as platereader at Ex544/Em590 in continuous.

[6] = tested on: U87MG_IDH1R132H; assay: Cellular 2-HG production assay, U87-MG-IDH1 R132H; type: cell-based; details: inhibition of 2HG production, 72 hr incubation, LC-MS/MS
Method in brief: as §1

Structure (SMILES) | IC50 [1] [nM] | IC50 [2] [nM] | IC50 [3] [nM] | IC50 [4] [nM] | IC50 [5] [nM] | IC50 [6] [nM]
C=CC(=O)N1CCN(C(CC)c2ccc([C@H](C)Nc3ncc4ccc(=O)n(C(C)C)c4n3)cc2)CC1 (stereo partly drawn) [cpd 187, 2-{[(1S)-1-{4-[1-(4-acryloylpiperazin-1-yl)propyl]phenyl}ethyl]amino}-8-(propan-2-yl)pyrido[2,3-d]pyrimidin-7(8H)-one] | < 1 | 2 | 2 | 18 | 541 | –
C=CC(=O)N1CCN(C(=O)c2ccc([C@H](C)Nc3ncc4ccc(=O)n([C@@H](C)C(C)C)c4n3)cc2F)CC1 [cpd 191, 2-{[(1S)-1-{4-[(4-acryloylpiperazin-1-yl)carbonyl]-3-fluorophenyl}ethyl]amino}-8-[(2S)-3-methylbutan-2-yl]pyrido[2,3-d]pyrimidin-7(8H)-one] | 40 | 70 | 116 | 902 | 2990 | –
C=CC(=O)N1CCC(Oc2ccc([C@H](C)Nc3ncc4ccc(=O)n([C@@H](C)C(C)C)c4n3)cc2)CC1 [cpd 159, 2-{(S)-1-[4-(1-Acryloyl-piperidin-4-yloxy)-phenyl]-ethylamino}-8-((S)-1,2-dimethyl-propyl)-8H-pyrido[2,3-d]pyrimidin-7-one] | – | 77 | 37 | 510 | 1730 | 81
C=CC(=O)N1CCN(Cc2ccc([C@H](C)Nc3ncc4ccc(=O)n(C(C)C)c4n3)cc2)CC1 [cpd 184, 2-{[(1S)-1-{4-[(4-acryloylpiperazin-1-yl)methyl]phenyl}ethyl]amino}-8-(propan-2-yl)pyrido[2,3-d]pyrimidin-7(8H)-one] | 28 | 126 | 227 | 201 | 2870 | –
C=CC(=O)N1CCN(Cc2ccc([C@H](C)Nc3ncc4ccc(=O)n(CC(C)(C)C)c4n3)cc2F)CC1 [cpd 141, 2-{[(1S)-1-{4-[(4-acryloylpiperazin-1-yl)methyl]-3-fluorophenyl}ethyl]amino}-8-(2,2-dimethylpropyl)pyrido[2,3-d] pyrimidin-7(8H)-one] | – | 38 | 31 | 213 | 1820 | 24
C=CC(=O)N1CCN(c2ccc([C@H](C)Nc3ncc4ccc(=O)n([C@@H](C)C(C)C)c4n3)cc2)CC1 [cpd 175, 2-({(1S)-1-[4-(4-acryloylpiperazin-1-yl)phenyl]ethyl}amino)-8-[(2S)-3-methylbutan-2-yl]pyrido[2,3-d]pyrimidin-7(8H)-one] | – | 65 | 66 | 442 | 1170 | 21
C=CC(=O)N1CCN(Cc2ccc([C@H](C)Nc3ncc4ccc(=O)n(C(C)C)c4n3)cc2F)CC1 [cpd 183, 2-{[(1S)-1-{4-[(4-acryloylpiperazin-1-yl)methyl]-3-fluorophenyl}ethyl]amino}-8-(propan-2-yl)pyrido[2,3-d]pyrimidin-7(8H)-one] | 21 | 52 | 39 | – | 899 | –
C=CC(=O)N1CCC(Oc2ccc([C@H](C)Nc3ncc4ccc(=O)n(CC(C)(C)C)c4n3)cc2)CC1 [cpd 156, 2-{(S)-1-[4-(1-Acryloyl-piperidin-4-yloxy)-phenyl]-ethylamino}-8-(2,2-dimethyl-propyl)-8H-pyrido[2,3-d]pyrimidin-7-one] | – | 139 | 91 | 476 | 2540 | 289

Now from value to compound:

IC50 [1] [nM] | IC50 [2] [nM] | IC50 [3] [nM] | IC50 [4] [nM] | IC50 [5] [nM] | IC50 [6] [nM] | Structure (SMILES)
64.7 | 272 | 196 | 146 | 117 | – | C=CC(=O)N1CCC(C#N)(c2ccc([C@H](C)Nc3ncc4ccc(=O)n(C(C)C)c4n3)cc2)CC1 [cpd 241, 1-acryloyl-4-{4-[(1S)-1-{[7-oxo-8-(propan-2-yl)-7,8-dihydropyrido[2,3-d]pyrimidin-2-yl]amino}ethyl]phenyl}piperidine-4-carbonitrile]
3 | 5 | 4 | 35 | 215 | – | C=CC(=O)N1CCN(C(CC)c2ccc(C3(Nc4ncc5ccc(=O)n(C(C)C)c5n4)CC3)cc2)CC1 (centres unmarked) [cpd 247, 2-[(1-{4-[1-(4-acryloylpiperazin-1-yl)propyl]phenyl}cyclopropyl)amino]-8-(propan-2-yl)pyrido[2,3-d]pyrimidin-7(8H)-one]
2.9 | 5 | 3 | 33 | 215 | – | C=CC(=O)N1CCN([C@@H](CC)c2ccc(C3(Nc4ncc5ccc(=O)n(C(C)C)c5n4)CC3)cc2)CC1 (single isomer, unassigned) [cpd 249]
0.3 | 1 | 1 | 14 | 122 | – | C=CC(=O)N1CCN([C@H](CC2CC2)c2ccc([C@H](C)Nc3ncc4ccc(=O)n(C(C)C)c4n3)cc2)CC1 [cpd 231, 2-{[(1S)-1-{4-[(1R)-1-(4-acryloylpiperazin-1-yl)-2-cyclopropylethyl]phenyl}ethyl]amino}-8-(propan-2-yl) pyrido [2,3-d]pyrimidin-7(8H)-one]
10.1 | 13 | 15 | 98 | 221 | – | C=CC(=O)N1CCN(Cc2ccc([C@H](C)Nc3nc(N)c4ccc(=O)n(C(C)C)c4n3)cc2)CC1 [cpd 206, 2-{[(1S)-1-{4-[(4-acryloylpiperazin-1-yl)methyl]phenyl}ethyl]amino}-4-amino-8-(propan-2-yl)pyrido[2,3-d]pyrimidin-7(8H)-one]
2.1 | 4 | 2 | 15 | 64 | – | C=CC(=O)N1CCN(C(CC)c2ccc([C@H](C)Nc3ncc4ccc(=O)n(CC)c4n3)cc2)CC1 (stereo partly drawn) [cpd 214, 2-{[(1S)-1-{4-[1-(4-acryloylpiperazin-1-yl)propyl]phenyl}ethyl]amino}-8-ethylpyrido[2,3-d]pyrimidin-7(8H)-one]
1 | 2 | 2 | 20 | 224 | – | C=CC(=O)N1CCN([C@H](CC2CC2)c2ccc(C3(Nc4ncc5ccc(=O)n(C(C)C)c5n4)CC3)cc2)CC1 (single isomer, unassigned) [cpd 245]
2.1 | 2 | 1 | 19 | 231 | – | C=CC(=O)N1CCN([C@@H](CC2CC2)c2ccc(C3(Nc4ncc5ccc(=O)n(C(C)C)c5n4)CC3)cc2)CC1 (single isomer, unassigned) [cpd 246]
1.6 | 2 | 3 | 21 | 220 | – | C=CC(=O)N1CCN(C(CC2CC2)c2ccc(C3(Nc4ncc5ccc(=O)n(C(C)C)c5n4)CC3)cc2)CC1 (centres unmarked) [cpd 244, 2-[(1-{4-[1-(4-acryloylpiperazin-1-yl)-2-cyclopropylethyl]phenyl}cyclopropyl)amino]-8-(propan-2-yl)pyrido[2,3-d]pyrimidin-7(8H)-one]
3.1 | 4 | 2 | 30 | 216 | – | C=CC(=O)N1CCN([C@H](CC)c2ccc(C3(Nc4ncc5ccc(=O)n(C(C)C)c5n4)CC3)cc2)CC1 (single isomer, unassigned) [cpd 248]
